Type in all cases: biochemical
In assay [1] the target is T1, His6-MmHsl (murine Hsl) (Mus musculus, UniProt P54310).
T1 construct: gene Lipe; N-terminal His6 tag kept, COS-7 cell extract; plasmid described previously (Lass et al., 2006)
T1 sequence (P54310 1-759): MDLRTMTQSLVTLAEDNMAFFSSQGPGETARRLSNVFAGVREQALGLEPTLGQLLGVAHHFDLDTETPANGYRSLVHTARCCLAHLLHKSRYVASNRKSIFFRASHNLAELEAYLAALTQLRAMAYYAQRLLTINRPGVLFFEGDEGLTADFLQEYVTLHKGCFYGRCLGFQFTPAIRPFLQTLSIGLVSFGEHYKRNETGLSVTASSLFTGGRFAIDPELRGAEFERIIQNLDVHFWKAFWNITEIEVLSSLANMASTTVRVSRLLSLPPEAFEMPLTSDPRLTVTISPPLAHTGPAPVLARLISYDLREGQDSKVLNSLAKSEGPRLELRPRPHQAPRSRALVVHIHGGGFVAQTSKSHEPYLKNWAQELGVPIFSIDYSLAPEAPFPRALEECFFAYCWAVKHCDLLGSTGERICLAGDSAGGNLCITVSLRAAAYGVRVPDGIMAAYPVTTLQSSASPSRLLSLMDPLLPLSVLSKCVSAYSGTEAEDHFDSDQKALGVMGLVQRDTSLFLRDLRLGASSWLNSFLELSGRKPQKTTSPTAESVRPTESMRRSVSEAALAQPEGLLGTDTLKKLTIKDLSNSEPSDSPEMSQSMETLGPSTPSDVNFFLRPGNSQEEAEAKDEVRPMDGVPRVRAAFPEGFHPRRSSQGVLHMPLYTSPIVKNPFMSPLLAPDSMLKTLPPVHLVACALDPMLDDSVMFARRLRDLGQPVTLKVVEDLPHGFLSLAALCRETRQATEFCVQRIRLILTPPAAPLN
The experiment in a line: release of labelled fatty acid, scintillation counting. The conditions noted are these: 0.45 mM substrate emulsified with PC/PI, 5% BSA, BTP buffer pH 7.5, 37°C, 60 min; labelled compound (14C-cholesteryl oleate tracer).

Assay [2] has as its target T2, His6-Hsl (Drosophila Hsl) (Drosophila melanogaster, UniProt A4UZQ8).
T2 construct: Hsl open reading frame from cDNA RE52776 in pcDNA4/HisMax C, N-terminal His6 tag kept, COS-7 cell extract
T2 sequence (A4UZQ8 2-881): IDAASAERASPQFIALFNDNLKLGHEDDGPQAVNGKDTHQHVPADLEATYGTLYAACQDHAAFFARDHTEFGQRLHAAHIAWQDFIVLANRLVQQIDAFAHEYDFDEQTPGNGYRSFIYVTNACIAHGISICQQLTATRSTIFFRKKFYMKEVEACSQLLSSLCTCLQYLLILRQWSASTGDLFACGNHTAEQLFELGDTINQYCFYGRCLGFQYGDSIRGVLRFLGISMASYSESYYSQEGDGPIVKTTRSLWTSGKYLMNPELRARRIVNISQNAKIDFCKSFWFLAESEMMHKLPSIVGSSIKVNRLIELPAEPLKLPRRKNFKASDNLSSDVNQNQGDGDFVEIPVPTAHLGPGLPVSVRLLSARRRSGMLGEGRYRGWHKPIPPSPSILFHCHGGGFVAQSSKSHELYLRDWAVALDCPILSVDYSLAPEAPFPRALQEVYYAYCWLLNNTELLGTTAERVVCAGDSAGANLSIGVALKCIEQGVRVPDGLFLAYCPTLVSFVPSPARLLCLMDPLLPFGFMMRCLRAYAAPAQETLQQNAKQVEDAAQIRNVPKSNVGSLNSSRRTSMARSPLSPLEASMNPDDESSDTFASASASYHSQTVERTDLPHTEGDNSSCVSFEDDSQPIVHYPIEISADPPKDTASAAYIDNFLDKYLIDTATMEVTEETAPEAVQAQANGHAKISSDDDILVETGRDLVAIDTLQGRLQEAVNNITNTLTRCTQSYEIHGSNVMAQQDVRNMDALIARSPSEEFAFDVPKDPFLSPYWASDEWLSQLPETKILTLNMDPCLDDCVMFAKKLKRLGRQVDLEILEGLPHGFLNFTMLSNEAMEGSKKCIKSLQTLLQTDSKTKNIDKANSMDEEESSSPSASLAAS
The description is as above. The conditions noted are these: 0.45 mM substrate emulsified with PC/PI, 5% BSA, BTP buffer pH 7.5, 37°C, 60 min; labelled compound (14C-cholesteryl oleate tracer).

The target in assay [3] is T1, His6-MmHsl (murine Hsl). In words: colorimetric free fatty acid release (NEFA kit). The conditions noted are these: 0.3 mM substrate emulsified with PC/PI, 2% BSA, BTP buffer pH 7.5, 37°C, 30-60 min.
Assay [4] deals with T2, His6-Hsl (Drosophila Hsl). In words: colorimetric free fatty acid release (NEFA kit). The conditions noted are these: 0.3 mM substrate emulsified with PC/PI, 2% BSA, BTP buffer pH 7.5, 37°C, 30-60 min.

Take `CCCCCCCC/C=C\CCCCCCCC(=O)O[C@H]1CC[C@@]2(C)C(=CC[C@H]3[C@@H]4CC[C@H]([C@H](C)CCCC(C)C)[C@@]4(C)CC[C@@H]32)C1` [CE 18:1, cholesteryl oleate]: the “release of labelled fatty acid, scintillation counting” value in assay [1] is “Expression of His6-MmHsl increased cellular hydrolysis rates toward monoacylglycerol (MG), DG, TG, and SE”; in assay [2] it was “Expression of fly His6-Hsl elevated cellular hydrolysis rates toward MG, DG, TG, and SE”.

With `CCCCCCCC/C=C\CCCCCCCC(=O)OCC(CO)OC(=O)CCCCCCC/C=C\CCCCCCCC` (racemic) [DG 36:2, 1,2-dioleoyl-rac-glycerol], the “colorimetric free fatty acid release (NEFA kit)” value in assay [3] was “Expression of His6-MmHsl increased cellular hydrolysis rates toward monoacylglycerol (MG), DG, TG, and SE”; in assay [4], “Expression of fly His6-Hsl elevated cellular hydrolysis rates toward MG, DG, TG, and SE”.

Source of the values: article PMC7880688, “Hormone-sensitive lipase couples intergenerational sterol metabolism to reproductive success” (eLife, 2021).
